We go through 5 molecules from patent publication US6413541B1, “Disintegrating tablet in oral cavity and production thereof” (Dainippon Pharmaceutical Co., Ltd., priority 2000, dated 2002).

Like-named read-outs stand apart in the source and are kept apart here.

The procedure of data set [1]: These saccharides can be used alone or in a mixture of two or more of these saccharides, and can usually be contained in an amount of about 0.1 to about 20% by weight, preferably in an amount of about 0.5 to about 10% by weight in the present tablet.
Purified water at 25° C. (20 ml) was put into a beaker, and thereto was added each saccharide under stirring. Xylitol, sorbitol, glucose and sucrose were added in portions of 1 g, and erythritol was added in portions of 0.5 g, and lactose and mannitol were added in portions of 0.1 g, each. The mixture was stirred for one hour, and the dissolved amount of each saccharide was determined. The amount dissolving in 100 ml of water was converted and used as solubility of the saccharide in the present specification.

The conditions of data set [2]: in 100 ml of purified water at about 25° C.; Merck Index, 12th ed., 10220 (1996); cited from earlier work.

With `OC[C@@H](O)[C@@H](O)CO` [erythritol], the solubility result in data set [1] is given as “about 47.5 g”.
As for `OC[C@@H](O)[C@@H](O)[C@H](O)[C@@H](O)CO` [sorbitol], the solubility entry in data set [1] is “about 130 g”.
Take `OC[C@H]1O[C@@](CO)(O[C@H]2O[C@H](CO)[C@@H](O)[C@H](O)[C@H]2O)[C@@H](O)[C@@H]1O` [sucrose]: the solubility result in data set [1] is recorded as “about 170 g”.
In the case of `OC[C@@H](O)[C@H](O)[C@@H](O)CO` [xylitol], the solubility entry in data set [1] is reported as “about 135 g”.
For the molecule `O=C[C@H](O)[C@@H](O)[C@H](O)CO` [xylose], the solubility entry in data set [2] was “about 125 g”.
